Read-outs that look alike come from different tables or passages of the source.
Test: Example C: HTL0018318 plasma and urine pharmacokinetics
Assay type: in vivo, human
Details: for CL renal / Cmax / AUC / AUC(0-inf) / half-life / Tmax: human, oral; for CL renal: plasma and urine; for Cmax / AUC / AUC(0-inf) / half-life / Tmax: plasma; for AUC: Tau = 24 hrs, read-out: AUC0-tau (mean); for AUC(0-inf): read-out: AUC0-inf (mean); for half-life: read-out: Half-life (mean) (converted); for Tmax: read-out: Tmax (median)
Method: On the days between, only pre-dose PK samples were taken. The last PK blood sample was taken between 7-14 days after the last HTL0018318 dose (Table 7).
For these calculations, data of 15 mg and 25 mg HTL0018318 were grouped together. […]
All PK analyses were performed in Phoenix 64 build 6.4.0.768 using WinNonlin 6.4. Statistical analysis was performed in R version 3.3.1 (2016-06-21) Copyright (C) 2016 The R Foundation for Statistical Computing (Platform: x86_64-w64-mingw32/x64 64-bit).

[1] = fifth dose, 15 and 25 mg grouped
[2] = first dose, 15 and 25 mg grouped

Structure (SMILES): CCOC(=O)N1C2CCC1CC(N1CCC3(CC1)CNC(=O)C3)C2 (stereo not shown) [HTL0018318, ethyl 3-(3-oxo-2,8-diazaspiro[4.5]dec-8-yl)-8-azabicyclo[3.2.1]octane-8-carboxylate]
- Ae (mean) (15 mg + DPZ, 1st dose): 39.9%
- CL/F (mean) (15 mg + DPZ, 1st dose): 14.7 L/h
- Ae (mean) (15 mg + DPZ, 5th dose): 51.5%
- CL/F (mean) (15 mg + DPZ, 5th dose): 14.0 L/h
- mean ratio AUC0-tau fifth dose / AUC0-inf first dose (15 mg alone): 1.04
- mean ratio AUC0-tau fifth dose / AUC0-tau first dose (15 mg alone): 1.27
- Ae (mean) (15 mg only, 1st dose): 39.2%
- CL/F (mean) (15 mg only, 1st dose): 14.2 L/h
- Ae (mean) (15 mg only, 5th dose): 47.9%
- CL/F (mean) (15 mg only, 5th dose): 14.0 L/h
- mean ratio AUC0-tau fifth dose / AUC0-inf first dose (15 mg, donepezil co-dosed): 1.04
- mean ratio AUC0-tau fifth dose / AUC0-tau first dose (15 mg, donepezil co-dosed): 1.23
- Ae (mean) (25 mg + DPZ, 1st dose): 41.1%
- CL/F (mean) (25 mg + DPZ, 1st dose): 17.0 L/h
- Ae (mean) (25 mg + DPZ, 5th dose): 47.7%
- CL/F (mean) (25 mg + DPZ, 5th dose): 16.0 L/h
- mean ratio AUC0-tau fifth dose / AUC0-inf first dose (25 mg alone): 1.06
- mean ratio AUC0-tau fifth dose / AUC0-tau first dose (25 mg alone): 1.23
- Ae (mean) (25 mg only, 1st dose): 32.6%
- CL/F (mean) (25 mg only, 1st dose): 17.6 L/h
- Ae (mean) (25 mg only, 5th dose): 44.1%
- CL/F (mean) (25 mg only, 5th dose): 16.6 L/h
- mean ratio AUC0-tau fifth dose / AUC0-inf first dose (25 mg, donepezil co-dosed): 1.03
- mean ratio AUC0-tau fifth dose / AUC0-tau first dose (25 mg, donepezil co-dosed): 1.21
- pharmacokinetic steady-state reached (daily dosing 15 or 25 mg): on or before the fifth daily dose
- ratio of AUC0-tau, in combination with donepezil vs alone [1]: 1.00
- ratio of Cmax, in combination with donepezil vs alone [1]: 1.04
- ratio of Cmin, in combination with donepezil vs alone [1]: 0.911
- ratio of Tmax, in combination with donepezil vs alone [1]: 0.974
- ratio of AUC0-24, in combination with donepezil vs alone [2]: 1.02
- ratio of Cmax, in combination with donepezil vs alone [2]: 1.05
- ratio of Tmax, in combination with donepezil vs alone [2]: 1.01
- CL renal (25 mg + DPZ, 1st dose): 129 mL/min
- CL renal (25 mg + DPZ, 5th dose): 113 mL/min
- CL renal (25 mg, 25 mg only, 1st dose): 104 mL/min
- CL renal (25 mg, 25 mg only, 5th dose): 109 mL/min
- Cmax (15 mg + DPZ, 1st dose): 91.2 ng/mL
- AUC (15 mg + DPZ, 1st dose): 932 ng·h/mL
- AUC(0-inf) (15 mg + DPZ, 1st dose): 1120 ng·h/mL
- half-life (15 mg + DPZ, 1st dose): 8.97 h
- Tmax (15 mg + DPZ, 1st dose): 2.5 h
- Cmax (15 mg + DPZ, 5th dose): 109 ng/mL
- AUC (15 mg + DPZ, 5th dose): 1150 ng·h/mL
- half-life (15 mg + DPZ, 5th dose): 11.6 h
- Tmax (15 mg + DPZ, 5th dose): 1.74 h
- Cmax (15 mg, 15 mg only, 1st dose): 83.4 ng/mL
- AUC (15 mg, 15 mg only, 1st dose): 919 ng·h/mL
- AUC(0-inf) (15 mg, 15 mg only, 1st dose): 1130 ng·h/mL
- half-life (15 mg, 15 mg only, 1st dose): 9.25 h
- Tmax (15 mg, 15 mg only, 1st dose): 2 h
- Cmax (15 mg, 15 mg only, 5th dose): 103 ng/mL
- AUC (15 mg, 15 mg only, 5th dose): 1180 ng·h/mL
- half-life (15 mg, 15 mg only, 5th dose): 13.8 h
- Tmax (15 mg, 15 mg only, 5th dose): 2.05 h
- Cmax (25 mg + DPZ, 1st dose): 139 ng/mL
- AUC (25 mg + DPZ, 1st dose): 1410 ng·h/mL
- AUC(0-inf) (25 mg + DPZ, 1st dose): 1710 ng·h/mL
- half-life (25 mg + DPZ, 1st dose): 8.73 h
- Tmax (25 mg + DPZ, 1st dose): 1.76 h
- Cmax (25 mg + DPZ, 5th dose): 171 ng/mL
- AUC (25 mg + DPZ, 5th dose): 1740 ng·h/mL
- half-life (25 mg + DPZ, 5th dose): 10.7 h
- Tmax (25 mg + DPZ, 5th dose): 2 h
- Cmax (25 mg, 25 mg only, 1st dose): 135 ng/mL
